Columns and labels:
Type in all cases: cell-based, human
[1] = system: SCC-1 cells; experiment: Flow cytometry cell cycle distribution, synchronized SCC-1 cells; conditions: 10^-6 M OGF, 14 h
Method: For flow cytometry, cells were synchronized with 0.5 μg/ml nocodazole (Sigma-Aldrich) for 24 h, followed by three washes with complete media. Cells were released from growth arrest by addition of complete media or OGF-supplemented media. Synchronized cells were treated with 10^−6 M OGF for 14 h, harvested with 0.25% trypsin-EDTA (Mediatech, Herndon, Va.) and fixed with 70% ethanol at −20° C. for up to 7 days before DNA analysis. DNA content was obtained by incubating cells in PBS containing propidium iodide (0.1 mg/ml) and RNase A (0.02 mg/ml) for 15 min at 22° C. Fluorescence was measured and analyzed using a BD Biosciences FACScan flow cytometer (San Diego, Calif.) and Modfit Software (Topsham, Me.).

[2] = system: BxPC-3 cells; experiment: Flow cytometry cell cycle distribution, synchronized BxPC-3 cells; conditions: 10^-6 M OGF, 21 hours
Method: For flow cytometry, cells were synchronized with 67 ng/ml nocodazole (Sigma-Aldrich) for 24 hours, followed by three washes with complete media. Cells were released from growth arrest by addition of complete media or OGF supplemented complete media. Synchronized cells were treated with 10^-6 M OGF for 21 hours, harvested with 0.25% trypsin-EDTA (Mediatech, Herndon, Va.) and fixed with 70% ethanol at −20° C. for up to 7 days before DNA analysis.
DNA content was obtained by incubating cells in PBS containing propidium iodide (0.1 mg/ml) and RNase A (0.02 mg/ml) for 15 minutes at 220 C. Fluorescence was measured and analyzed using a BD Biosciences FACScan flow cytometer (San Diego, Calif.) and Modfit Software (Topsham, Me.).

[3] = system: p16; experiment: Western blot of p16 in SCC-4 cells; conditions: SCC-4 cells, 3 h
Method: The SCC-1 (UM-SCC-1) cell line was obtained from the University of Michigan Cancer Research Laboratory, and CAL-27 and SCC-4 cells were obtained from the American Type Culture Collection (Manassas, Va.). SCC-1 and CAL-27 cells were cultured in DMEM media, whereas SCC-4 cells were grown in 1:1 Hams F-12 DMEM media. All media was supplemented with 10% fetal bovine serum (HyClone, Logan, Utah), 1.2% sodium bicarbonate, and 5000 units/ml penicillin, 5 μg/ml streptomycin and 10 μg/ml neomycin. OGF was purchased from Sigma-Aldrich (St. Louis, Mo.), dissolved in sterile water, and used at a final concentration of 10^−6 M.
Synchronized cells (˜2×10^6) from each treatment were solubilized in 200 μl RIPA buffer (1×PBS, 10 μM IGEPAL, 1 mg/ml SDS, 5 mg/ml deoxycholic acid), containing protease and phosphatase inhibitors (2 μg/ml aprotinin, 3 mg/ml phenylmethyl sulfonyl fluoride (PMSF), 1 mM sodium orthovanidate, 1 μM okadaic acid). Total protein concentrations were measured using the DC protein assay kit (Bio-Rad Laboratories, Hercules, Calif.). Equal amounts of protein (40 μg) were subjected to 10% SDS-PAGE followed by transfer of proteins onto polyvinylidene difluoride (Millipore, Billerica, Mass.) using standard protocols. […]

Substance: [Met^5]-enkephalin [OGF]
- cells in the G2/M phase [1]: 22.7%
- cells in the S phase [1]: 42.7%
- percentage of cells in the G0/G1 phase [1]: 34.6%
- cells in S phase [2]: 28.0%
- cells in the G2/M phase [2]: 2.9%
- percentage of cells in the G0/G1 phase [2]: 69.1%
- p16 expression relative to synchronized control cells [3]: induced p16 expression

From patent US7807368B2, “Cyclin-dependent kinase inhibitors as targets for opiod growth factor treatment” (priority 2006, dated 2010)
